# From patent US20260191764A1, “COMBINATION OF A LACTOBACILLUS STRAIN AND A GRAPE EXTRACT FOR USE AS AN ANTI-AGEING AGENT” (CEPAGES, priority 2022, published 2026)
# Tests used:
# NHEK keratinocytes = experiment: ROS production in NHEK keratinocytes subjected to UVA (H2DCFDA probe); format: cell-based, Human; details: UVA 5 J/cm^2, extract at 0.29%, active at 0.3%, ascorbic acid at 300 μg/mL, 24 h pre-treatment, FIG. 2
# Method: The Normal Human foreskin-derived Epidermal Keratinocytes isolated from 3 Caucasian donors (NHEKs, Lonza, 00192906) were grown in Epilife medium (Fisher Scientific, M-EPI-500-A) supplemented with Human Keratinocyte Growth Supplement (HKGS, Fisher Scientific, S-001-5). The cells were maintained in a humidified incubator at 37° C. with a 5% CO2 atmosphere. The detection and quantification of the intracellular ROS amounts from 2D NHEK keratinocytes or 3D RHE were performed using the H2DCFDA (2′-7′dichlorodihydrofluorescein diacetate; Fisher Scientific; D399) probe. After its diffusion into the live cells, the probe is deacetylated by intracellular esterases to a non-fluorescent compound. This compound can be oxidized by ROS and converted into the highly fluorescent DCF (2′-7′ dichlorofluorescein). The production of ROS by cells can be therefore measured through the level of fluorescence emitted by the oxidized dye. NHEK keratinocytes in 24-well plates were pre-treated in the culture medium during 24 h by the compounds at 1 concentration or with the antioxidant reference, ascorbic acid at 300 μg/mL. […] Following the challenge, the fluorescence was measured (excitation: 475 nm; emission: 500-550 nm) with a fluorescence microplate reader (Glomax Explorer, Promega). […]
# pro-MMP1 = experiment: Pro-MMP1 release from NHDFs fibroblasts (ELISA); format: cell-based, Human; details: NHDFs treated 72 h; B 0.0079%, E 0.029%, A 0.03%; TGF-β1 20 ng/ml; TNFα 20 ng/mL + IL1β 2.5 ng/ml; vs untreated control; FIG. 3
# Method: The Normal Human foreskin-derived Dermal Fibroblasts (NHDFs; ATCC, CRL-2522) cells were grown in Dulbecco's Modified Eagle Medium (DMEM, Gibco/Life Technologies, 31885) supplemented with 10% of Foetal Bovine Serum (FBS, Gibco/Life Technologies, 10270). The cells were maintained in a humidified incubator at 37° C. with a 5% CO2 atmosphere.
# NHDF fibroblasts were cultivated on 24-well plates in complete culture medium (containing 10% FBS) 24 h before the treatment with the compounds. Cells were then treated for 72 h with the test compounds in culture medium, in absence of FBS. In parallel, reference treatments were applied according to the same method (TGF-β at 20 ng/ml; combination of TNFα at 20 ng/ml and IL1β at 2.5 ng/ml). All the treatments were performed in triplicate of culture (n=3).
# At the end of the 72 h of treatments, all the supernatants were collected, aliquoted and stored at −20° C. until further use in specific ELISA assays. Through these assays, the quantifications of the extracellular releases of pro-MMP1 (R&D systems, DMP100) produced by NHDFs fibroblasts were assessed according to the supplier's specifications.
Compound,ROS production (NHEK keratinocytes),pro-MMP1 release in supernatant (pro-MMP1)
O=C1O[C@H]([C@@H](O)CO)C(O)=C1O [ascorbic acid],partially suppressed this effect,
TGF-β1: negative reference at 20 ng/ml in the pro-MMP1 assay,,reduced
